# Laboratory results published in patent US9376436B2, “2-(pyridin-2yl)-1, 7-diaza-spiro [4.4] nonane-6-one compound as voltage-gated sodium channels modulators” (CONVERGENCE PHARMACEUTICALS LIMITED, priority 2011, dated 2016).
# Structures can show the parent of a compound that is named as a salt. Where two headings read alike, the source gives them in different places.
# Target: T1, hNaV1.7 (Homo sapiens, UniProt Q15858)
# T1 construct: expressed in transfected cells; host or cells: HEK293
# Test: QPatch NaV1.7 assay (whole-cell patch clamp, QPatch16x)
# Format: cell-based
# Details: HEK293-hNaV1.7 cells
# Experimental: The compounds of the invention were tested in a QPatch NaV1.7 assay.
# HEK293-hNaV1.7 cells were grown in DMEM-F12+10% FBS culture media at 37° C. At a confluency of 50-70% cells were dissociated from culture flasks & triturated to ensure unicellular cell suspension; cell density was measured & adjusted to 2-3×10^6 cells/ml. Recordings were obtained using QPatch16x. The external solution was (in mM): NaCl, 128; KCl, 5; MgCl2, 2; CaCl2, 2; Glucose, 30; HEPES, 15; pH 7.3, 305-315 mOsm. Following seal formation and whole-cell access using internal solution (containing in mM: CsF, 135; EGTA/CsOH, 1/5; HEPES 10; NaCl, 10; pH 7.3, 310-320 mOsM), voltage pulse protocols were applied. Initially a steady state inactivation voltage protocol was used to determine the half-maximal voltage for steady state inactivation (V1/2 SSI). Two holding voltages were used to determine test drug inhibition: −90 mV, where most of the channels are in a closed state; and V1/2 SSI, where half of the channels are inactivated. Currents were elicited […] by stepping to a membrane potential of 0 mV for 20 ms. Four-point cumulative concentration responses were derived by determining the peak current amplitude at each concentration of test drug over 120 second application. Curves were fitted with the Hill equation yielding pIC50 values at −90 mV and V1/2 SSI holding potentials.
# [1] = holding voltage V1/2 SSI (half of channels inactivated), read-out: QP Nav1.7 SSI vhalf pIC50 (converted)
# [2] = holding voltage −90 mV (most channels closed), read-out: QP Nav1.7 −90 mV pIC50 (converted)
# T1 sequence (Q15858 whole entry): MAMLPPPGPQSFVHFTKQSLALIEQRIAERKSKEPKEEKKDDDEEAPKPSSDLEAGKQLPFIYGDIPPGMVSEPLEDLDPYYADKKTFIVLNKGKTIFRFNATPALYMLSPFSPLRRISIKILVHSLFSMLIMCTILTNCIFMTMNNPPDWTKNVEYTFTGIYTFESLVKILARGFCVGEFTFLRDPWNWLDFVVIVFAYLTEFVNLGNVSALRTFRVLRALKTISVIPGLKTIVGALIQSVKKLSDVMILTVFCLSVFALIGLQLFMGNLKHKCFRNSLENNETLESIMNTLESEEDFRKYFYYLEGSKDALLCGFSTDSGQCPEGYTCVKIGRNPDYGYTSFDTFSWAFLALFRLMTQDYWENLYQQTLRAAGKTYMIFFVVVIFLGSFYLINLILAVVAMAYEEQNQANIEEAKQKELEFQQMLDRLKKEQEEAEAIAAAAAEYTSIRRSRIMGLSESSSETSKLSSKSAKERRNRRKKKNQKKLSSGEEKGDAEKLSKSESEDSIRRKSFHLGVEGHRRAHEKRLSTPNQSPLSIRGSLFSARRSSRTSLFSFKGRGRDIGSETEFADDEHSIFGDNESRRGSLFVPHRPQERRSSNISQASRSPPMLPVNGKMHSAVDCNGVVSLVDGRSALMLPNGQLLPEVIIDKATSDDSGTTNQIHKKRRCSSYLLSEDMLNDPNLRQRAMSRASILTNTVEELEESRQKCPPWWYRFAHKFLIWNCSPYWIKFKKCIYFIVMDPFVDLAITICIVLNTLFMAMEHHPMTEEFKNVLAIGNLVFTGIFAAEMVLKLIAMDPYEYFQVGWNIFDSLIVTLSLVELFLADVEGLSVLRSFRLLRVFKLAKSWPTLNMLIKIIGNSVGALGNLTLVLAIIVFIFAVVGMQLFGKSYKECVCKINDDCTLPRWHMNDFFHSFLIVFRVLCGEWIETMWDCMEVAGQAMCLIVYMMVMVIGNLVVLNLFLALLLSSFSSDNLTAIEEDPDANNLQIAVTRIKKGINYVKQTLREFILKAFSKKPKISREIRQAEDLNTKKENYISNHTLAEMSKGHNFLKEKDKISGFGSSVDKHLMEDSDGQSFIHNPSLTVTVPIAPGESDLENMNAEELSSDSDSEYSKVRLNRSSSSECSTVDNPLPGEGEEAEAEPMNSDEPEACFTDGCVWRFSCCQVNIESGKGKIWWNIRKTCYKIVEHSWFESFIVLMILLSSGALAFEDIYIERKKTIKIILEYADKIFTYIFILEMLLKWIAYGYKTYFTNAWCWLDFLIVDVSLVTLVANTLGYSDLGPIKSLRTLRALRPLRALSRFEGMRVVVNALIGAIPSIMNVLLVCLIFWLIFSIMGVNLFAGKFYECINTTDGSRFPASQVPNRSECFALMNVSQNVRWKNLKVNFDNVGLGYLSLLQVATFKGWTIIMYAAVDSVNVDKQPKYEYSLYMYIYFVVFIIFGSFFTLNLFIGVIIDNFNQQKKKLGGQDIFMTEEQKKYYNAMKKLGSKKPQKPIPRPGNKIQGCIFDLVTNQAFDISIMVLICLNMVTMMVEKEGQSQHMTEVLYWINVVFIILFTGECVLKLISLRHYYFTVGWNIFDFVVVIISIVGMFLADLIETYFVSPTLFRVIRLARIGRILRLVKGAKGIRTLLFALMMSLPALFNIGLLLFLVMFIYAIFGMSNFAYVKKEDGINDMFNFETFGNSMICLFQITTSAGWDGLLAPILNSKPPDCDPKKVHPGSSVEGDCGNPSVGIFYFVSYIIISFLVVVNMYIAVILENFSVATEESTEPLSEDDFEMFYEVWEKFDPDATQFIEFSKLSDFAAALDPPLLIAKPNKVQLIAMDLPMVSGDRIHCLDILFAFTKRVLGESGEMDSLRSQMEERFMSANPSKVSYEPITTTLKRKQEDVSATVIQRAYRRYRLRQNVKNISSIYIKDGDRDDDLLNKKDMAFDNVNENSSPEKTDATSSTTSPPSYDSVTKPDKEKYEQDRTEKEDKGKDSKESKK
Compound,IC50 [1] [µM],IC50 [2] [µM]
"COc1cc(C(F)(F)F)ccc1-c1cc(C)nc([C@@H]2CC[C@]3(CCN(C)C3=O)N2)c1 [Example 91, (3S,5R)-3-[4-[2-Methoxy-4-(trifluoromethyl)phenyl]-6-methyl-2-pyridyl]-8-methyl-4,8-diazaspiro[4.4]nonan-9-one hydrochloride]",2,39.8
"Cc1cc(-c2ccc(C(F)(F)F)cc2)cc([C@H]2CC[C@]3(CCNC3=O)N2)n1 [Example 96, (2R,5R)-2-[6-Methyl-4-[4-(trifluoromethyl)phenyl]-2-pyridyl]-1,7-diazaspiro[4.4]nonan-6-one hydrochloride]",3.16,20
"CCOc1cc(-c2ccnc([C@H]3CC[C@@]4(CCN(C)C4=O)N3)c2)c(F)cc1C [Example 151, (2R,5S)-2-[4-(5-Ethoxy-2-fluoro-4-methyl-phenyl)-2-pyridyl]-7-methyl-1,7-diazaspiro[4.4]nonan-6-one hydrochloride]",15.8,100
"CN1CC[C@@]2(CC[C@H](c3cc(-c4cc(OC5CC5)ccc4F)ccn3)N2)C1=O [Example 185, (2R,5S)-2-[4-[5-(Cyclopropoxy)-2-fluoro-phenyl]-2-pyridyl]-7-methyl-1,7-diazaspiro[4.4]nonan-6-one hydrochloride]",7.94,63.1
"CN1CC[C@@]2(CC[C@H](c3cc(-c4cc(OC(F)F)ccc4F)ccn3)N2)C1=O [Example 84, (2R,5S)-2-[4-[5-(Difluoromethoxy)-2-fluoro-phenyl]-2-pyridyl]-7-methyl-1,7-diazaspiro[4.4]nonan-6-one hydrochloride]",20,200
"Cc1cc(-c2ccc(OC(C)C)nc2)cc([C@@H]2CC[C@]3(CCN(C)C3=O)N2)n1 [Example 209, (2S,5R)-2-[4-(6-Isopropoxy-3-pyridyl)-6-methyl-2-pyridyl]-7-methyl-1,7-diazaspiro[4.4]nonan-6-one hydrochloride]",3.16,25.1
"Cc1cc(-c2cc(OC(C)C)ccc2F)cc([C@H]2CC[C@@]3(CCN(C)C3=O)N2)n1 [Example 198, (2R,5S)-2-[4-(2-Fluoro-5-isopropoxy-phenyl)-6-methyl-2-pyridyl]-7-methyl-1,7-diazaspiro[4.4]nonan-6-one hydrochloride]",5.01,63.1
"CCOc1ccc(F)c(-c2cc(C)nc([C@H]3CC[C@]4(CCNC4=O)N3)c2)c1 [Example 103, (2R,5R)-2-[4-(5-Ethoxy-2-fluoro-phenyl)-6-methyl-2-pyridyl]-1,7-diazaspiro[4.4]nonan-6-one hydrochloride]",0.126,2.51
"Cc1cc(-c2ccc(C(F)(F)F)cc2)cc([C@H]2CC[C@@]3(CCNC3=O)N2C)n1 [Example 229, (2R,5S)-1-Methyl-2-[6-methyl-4-[4-(trifluoromethyl)phenyl]-2-pyridyl]-1,7-diazaspiro[4.4]nonan-6-one hydrochloride]",3.16,63.1
"CN1CC[C@]2(CC[C@@H](c3cc(-c4ccc(C(F)(F)F)cc4)c(OC(C)(C)C)cn3)N2)C1=O [Example 64, (2S,5R)-2-[5-tert-Butoxy-4-[4-(trifluoromethyl)-phenyl]-2-pyridyl]-7-methyl-1,7-diazaspiro[4.4]nonan-6-one hydrochloride]",3.16,50.1
"Cc1cscc1-c1ccnc([C@H]2CC[C@@]3(CCN(C)C3=O)N2)c1 [Example 78, (2R,5S)-7-Methyl-2-[4-(4-methyl-3-thienyl)-2-pyridyl]-1,7-diazaspiro[4.4]nonan-6-one hydrochloride]",12.6,158
"CCOc1cccc(-c2cc(C)nc([C@H]3CC[C@@]4(CCN(C)C4=O)N3)c2)c1F [Example 199, (2R,5S)-2-[4-(3-Ethoxy-2-fluoro-phenyl)-6-methyl-2-pyridyl]-7-methyl-1,7-diazaspiro[4.4]nonan-6-one hydrochloride]",25.1,158
